pKd: −log10 of the molar value. Where two headings read alike, the source gives them in different places.
Legend:
[1] = molecular target: T1, PAK6 (Homo sapiens, UniProt Q9NQU5); assay: Competitive binding assay (Ambit), phage-displayed PAK vs immobilized staurosporine bait; conditions: 25° C., 1 hour, 0.1% DMSO, read-out: Kd value, Test PAK Inhibitor Affinity Assay
T1 construct: full length PAK or a PAK catalytic domain expressed on the surface of T7 bacteriophage; host or cells: T7 phage (modified T7 Select 10-3) grown in a BL21-derived E. coli host
Text: (§1) Binding data were fit to the equation:
(§2) PFU=L+((H−L)*(Kd(test)/(Kd(test)+[candidate])))

[2] = molecular target: T2, PAK1 (Homo sapiens, UniProt Q13153); assay: as above
T2 construct: full length PAK or a PAK catalytic domain expressed on the surface of T7 bacteriophage; host or cells: T7 phage (modified T7 Select 10-3) grown in a BL21-derived E. coli host
Text: as §1, §2

[3] = molecular target: T3, PAK7 (Homo sapiens, UniProt Q9P286); assay: as above; conditions: 25° C., 1 hour, 0.1% DMSO, read-out: Kd value, Test PAK Inhibitor Affinity Assay
T3 construct: full length PAK or a PAK catalytic domain expressed on the surface of T7 bacteriophage; host or cells: T7 phage (modified T7 Select 10-3) grown in a BL21-derived E. coli host
Text: as §1, §2

[4] = molecular target: T4, PAK2 (Homo sapiens, UniProt Q13177); assay: as above
T4 construct: full length PAK or a PAK catalytic domain expressed on the surface of T7 bacteriophage; host or cells: T7 phage (modified T7 Select 10-3) grown in a BL21-derived E. coli host
Text: as §1, §2

[5] = molecular target: PAK4 (Homo sapiens, UniProt O96013); assay: biochemical
Chain of PAK4 (O96013 whole entry): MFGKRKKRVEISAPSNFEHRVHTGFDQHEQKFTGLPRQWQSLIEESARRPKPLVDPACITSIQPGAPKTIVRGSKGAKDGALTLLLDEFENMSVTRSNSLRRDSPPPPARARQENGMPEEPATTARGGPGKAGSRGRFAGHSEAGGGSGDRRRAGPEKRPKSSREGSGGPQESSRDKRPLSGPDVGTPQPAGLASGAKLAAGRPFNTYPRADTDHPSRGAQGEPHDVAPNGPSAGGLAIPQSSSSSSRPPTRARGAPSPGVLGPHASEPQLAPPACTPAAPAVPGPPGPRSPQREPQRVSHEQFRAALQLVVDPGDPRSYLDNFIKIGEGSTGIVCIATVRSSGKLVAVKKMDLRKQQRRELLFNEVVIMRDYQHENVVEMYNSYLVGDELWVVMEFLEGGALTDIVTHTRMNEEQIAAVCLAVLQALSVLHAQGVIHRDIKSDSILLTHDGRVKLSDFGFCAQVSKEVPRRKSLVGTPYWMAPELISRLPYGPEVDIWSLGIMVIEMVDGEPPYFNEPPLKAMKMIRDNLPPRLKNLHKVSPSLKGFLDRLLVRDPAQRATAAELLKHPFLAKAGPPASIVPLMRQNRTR
Protocol: When these three components are combined, the test substance is tested for its ability to compete, in a concentration-dependent manner, with the immobilized kinase bait probe for binding for binding to the phage-PAK catalytic domain. Afterwards, the amount of bait probe-bound phage-PAK can be detected, for example, by a phage plaque assay and/or quantitative PCR of phage DNA. The amount of probe-bound phage-PAK is inversely proportional to the affinity of the candidate inhibitor for the kinase and can be used in determining a Kd value of the test substance for the PAK catalytic site, as described below. […]
T7 kinase-tagged phage strains were grown in parallel in 24- or 96-well blocks in an E. coli host derived from the BL21 strain. […] Phage titer in the eluates was measured by standard plaque assays or by quantitative PCR. […]
Kd (probe) is the binding constant for the interaction between the kinase and the immobilized ligand, [Probe] is the concentration of the immobilized ligand [test] ½ is the concentration of the free candidate compound at the midpoint of the transition. […] Under these conditions, binding constants measured for the interaction between kinases and candidate compounds (Kd (test)) are therefore independent of the affinity of the immobilized ligand for the kinase (Kd (probe)). […]

T2 sequence (Q13153 whole entry, the tested form may be a part): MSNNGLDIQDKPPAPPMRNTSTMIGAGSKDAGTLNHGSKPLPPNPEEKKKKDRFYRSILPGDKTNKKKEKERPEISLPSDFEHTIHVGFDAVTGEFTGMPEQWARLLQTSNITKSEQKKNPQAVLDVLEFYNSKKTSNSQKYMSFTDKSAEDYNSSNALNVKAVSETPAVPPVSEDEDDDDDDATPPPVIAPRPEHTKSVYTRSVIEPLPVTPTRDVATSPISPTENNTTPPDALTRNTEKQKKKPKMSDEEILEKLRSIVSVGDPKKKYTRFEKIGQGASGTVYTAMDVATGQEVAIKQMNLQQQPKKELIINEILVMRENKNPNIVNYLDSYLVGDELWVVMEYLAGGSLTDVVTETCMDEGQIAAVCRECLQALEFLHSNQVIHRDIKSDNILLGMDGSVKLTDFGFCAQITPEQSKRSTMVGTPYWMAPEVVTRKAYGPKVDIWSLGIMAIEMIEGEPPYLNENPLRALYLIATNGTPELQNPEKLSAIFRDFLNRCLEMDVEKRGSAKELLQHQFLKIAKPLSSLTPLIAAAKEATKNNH
T1 sequence (Q9NQU5 whole entry, the tested form may be a part): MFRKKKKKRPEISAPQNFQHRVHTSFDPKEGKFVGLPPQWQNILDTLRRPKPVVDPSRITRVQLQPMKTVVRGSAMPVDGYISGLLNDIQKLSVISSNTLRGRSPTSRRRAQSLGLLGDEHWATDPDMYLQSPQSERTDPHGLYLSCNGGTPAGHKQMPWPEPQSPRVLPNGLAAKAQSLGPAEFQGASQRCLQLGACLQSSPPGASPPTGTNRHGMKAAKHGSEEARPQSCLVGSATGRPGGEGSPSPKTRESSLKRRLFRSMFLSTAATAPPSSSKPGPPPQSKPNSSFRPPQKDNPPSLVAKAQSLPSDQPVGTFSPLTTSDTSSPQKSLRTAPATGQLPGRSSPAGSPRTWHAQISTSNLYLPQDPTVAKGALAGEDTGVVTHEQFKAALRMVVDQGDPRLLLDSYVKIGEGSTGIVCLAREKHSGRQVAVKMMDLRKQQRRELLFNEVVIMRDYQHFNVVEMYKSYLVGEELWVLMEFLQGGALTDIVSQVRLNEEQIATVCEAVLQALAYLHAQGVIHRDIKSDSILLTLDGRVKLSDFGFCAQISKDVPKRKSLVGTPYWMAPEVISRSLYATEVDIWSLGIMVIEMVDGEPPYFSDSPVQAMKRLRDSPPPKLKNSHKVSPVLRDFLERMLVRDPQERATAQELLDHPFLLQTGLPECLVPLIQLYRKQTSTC
T4 sequence (Q13177 whole entry, the tested form may be a part): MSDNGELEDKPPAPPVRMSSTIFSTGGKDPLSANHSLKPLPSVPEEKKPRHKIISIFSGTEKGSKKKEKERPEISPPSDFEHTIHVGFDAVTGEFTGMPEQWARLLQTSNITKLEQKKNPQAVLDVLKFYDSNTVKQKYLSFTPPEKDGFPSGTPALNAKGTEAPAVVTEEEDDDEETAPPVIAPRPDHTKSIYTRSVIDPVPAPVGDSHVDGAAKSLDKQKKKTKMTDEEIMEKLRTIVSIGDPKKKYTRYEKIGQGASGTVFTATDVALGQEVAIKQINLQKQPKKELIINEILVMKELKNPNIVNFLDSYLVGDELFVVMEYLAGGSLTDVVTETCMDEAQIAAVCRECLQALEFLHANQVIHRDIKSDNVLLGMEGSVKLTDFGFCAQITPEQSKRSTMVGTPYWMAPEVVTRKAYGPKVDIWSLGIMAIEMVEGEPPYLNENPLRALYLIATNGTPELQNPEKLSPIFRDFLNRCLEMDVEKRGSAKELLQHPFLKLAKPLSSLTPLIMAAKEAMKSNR
T3 sequence (Q9P286 whole entry, the tested form may be a part): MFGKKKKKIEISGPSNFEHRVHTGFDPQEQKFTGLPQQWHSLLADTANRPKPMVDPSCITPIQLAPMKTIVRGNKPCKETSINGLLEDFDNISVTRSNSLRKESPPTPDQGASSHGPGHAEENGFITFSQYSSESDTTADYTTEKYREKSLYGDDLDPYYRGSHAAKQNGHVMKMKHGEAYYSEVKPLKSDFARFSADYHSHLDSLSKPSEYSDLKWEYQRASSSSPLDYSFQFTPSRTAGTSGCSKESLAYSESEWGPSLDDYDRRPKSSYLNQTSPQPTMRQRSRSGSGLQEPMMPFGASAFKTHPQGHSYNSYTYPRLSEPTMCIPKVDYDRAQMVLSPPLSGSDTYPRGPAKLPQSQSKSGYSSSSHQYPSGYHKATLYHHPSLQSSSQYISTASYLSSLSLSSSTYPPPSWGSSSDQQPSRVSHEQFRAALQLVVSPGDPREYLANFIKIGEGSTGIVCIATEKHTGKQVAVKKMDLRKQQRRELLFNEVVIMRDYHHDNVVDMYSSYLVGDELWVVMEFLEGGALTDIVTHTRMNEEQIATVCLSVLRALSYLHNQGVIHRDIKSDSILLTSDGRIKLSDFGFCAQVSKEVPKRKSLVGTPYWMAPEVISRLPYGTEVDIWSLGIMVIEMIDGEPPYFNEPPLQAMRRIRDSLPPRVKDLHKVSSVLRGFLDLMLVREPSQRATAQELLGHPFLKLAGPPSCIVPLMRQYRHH

Row | pKd [1] | pKd ([2]; PAK1, 25° C., 1 hour, 0.1% DMSO, read-out: Kd value, Test PAK Inhibitor Affinity Assay) | pKd [3] | pKd ([4]; PAK2, 25° C., 1 hour, 0.1% DMSO, read-out: Kd value, Test PAK Inhibitor Affinity Assay) | pKd [5] | pKd [2] | pKd [4] | SMILES
1 | ≤ 5.00 | > 5.30 | ≤ 5.00 | ≤ 5.00 | ≤ 5.00 |  |  | CCOc1cc2ncc(C#N)c(Nc3ccc(F)c(Cl)c3)c2cc1NC(=O)/C=C/CN(C)C [EKB-569]
2 | > 5.30 |  |  |  |  | ≤ 5.00 | ≤ 5.00 | Nc1nc(Nc2ccc(S(N)(=O)=O)cc2)nn1C(=O)c1c(F)cccc1F [JNJ-7706621]
